Laboratory results reported in patent US20140308733A1, “METHOD FOR INDUCING GERMINATION OF SPORE FORMING BACTERIUM” (CALPIS CO., LTD., priority 2011, published 2014).

Assays:
Test in all cases: Germination induction, change of turbidity (630 nm) of spore suspension
Assay type in all cases: cell-based
Conditions in all cases: 300 ppm; for turbidity (630 nm): 37° C., 150 rpm; for germination confirmed by turbidity decrease: up to 180 min
[1] = tested on: Bacillus amyloliquefaciens (NBRC 3032)
Protocol: (§1) It is possible to determine whether spores have germinated, after measuring an OD 630 value (turbidity at 630 nm) of the liquid culture, based on decrease in the value (Literature: Microbiology, (1950), 4, 3, 330-338). Briefly, bacterial cells after culturing are washed with distilled water and diluted with distilled water to OD 630=1.0, which is then mixed with an equal volume of a germination induction solution, and the turbidity at 630 nm is measured by a UV spectrophotometer at room temperature.
(§2) TS culture media (Difco, Trypticase Soy Broth) were inoculated respectively with 11 strains listed in Table 1 and cultured at 50° C. with respect to Geobacillus stearothermophilus NBRC13737 and Aeribacillus pallidus TK6004 (FERM BP-08597), and at 37° C. with respect to the other 9 strains, until respective colonies were established. Then with respect to each of 11 strains, a loop full of a single colony was scratched by a platinum loop and suspended in 500 μL of sterilized water. In 1000 g of water was dissolved 8.0 g of a nutrient agar culture medium (Difco, Nutrient Broth), followed by high pressure steam sterilization (121° C., 15 min) to prepare a plate medium. The nutrient agar culture medium was smeared with each 100 μL of the suspension and cultured at 37° C. for 3 days.
(§3) Then, bacterial cells were suspended using a platinum loop in 500 μL of sterilized water, and the bacterial suspension was subjected to a heat shock at 65° C. for 35 min. Each 100 μL of the heat-shocked bacterial suspension and a not-heat-shocked bacterial suspension were smeared on the TS culture media respectively and cultured at 50° C. or 37° C. for 1 day. As the results of the cultures, colony formation was confirmed also with respect to the heat-shocked bacterial suspensions, to confirm that spores were formed for all of 11 strains. Further, since the bacteria were not stained by Gram staining, it was reconfirmed that spores were formed.
(§4) After confirming the spore formation, the bacterial cells were collected by a bacteria spreader, suspended in 10 mL of sterilized distilled water, and then centrifuged (8340×g, 4° C., 15 min). The supernatant was removed and thereafter the bacterial cells were washed twice with 10 mL of sterilized water. After washing, the bacterial cells were suspended in 5 mL of sterilized water, and the suspension was filtrated by sterilized Kimwipes. The filtrate was centrifuged (8340×g, 4° C., 15 min) to remove the supernatant, and the rest was adjusted to the turbidity (at 630 nm) of 1.0 with sterilized water.
(§5) After dissolving with stirring using a stirring rod with a propeller, filtration sterilization (0.45 μm filter) was conducted to prepare each 600 ppm-solution.
(§6) Five hundred (500) μL of each solution and 500 μL of each bacterial spore suspension were mixed. […] Defining the time point of mixing as the reaction initiation (0 min), and continuing shaking (150 rpm) at 37° C., the turbidity (630 nm) was measured at 10, 20, 30, 40, 50, 60, 90, 120, and 180 min after the reaction initiation.
(§7) Since the turbidity at 630 nm decreases by germination of spores, it has been known that the turbidity at 630 nm can be used to determine the germination rate.

[2] = tested on: Geobacillus stearothermophilus (NBRC 13737)
Protocol: as §1, §2, §3, §4, §5, §6, §7

[3] = tested on: Bacillus coagulans (NBRC 12583)
Protocol: as §1, §2, §3, §4, §5, §6, §7

[4] = tested on: Aeribacillus pallidus TK6004 (FERM BP-08597)
Protocol: as §1, §2, §3, §4, §5, §6, §7

[5] = tested on: Bacillus subtilis C-3102 (FERM BP-1096)
Protocol: as §1, §2, §3, §4, §5, §6, §7

[6] = tested on: Bacillus coagulans (NBRC 3887)
Protocol: as §1, §2, §3, §4, §5, §6, §7

[7] = tested on: Bacillus amyloliquefaciens (NBRC 3022)
Protocol: as §1, §2, §3, §4, §5, §6, §7

[8] = 0 min after reaction initiation
[9] = 10 min after reaction initiation
[10] = 20 min after reaction initiation
[11] = 30 min after reaction initiation
[12] = 40 min after reaction initiation
[13] = 50 min after reaction initiation
[14] = 60 min after reaction initiation
[15] = 90 min after reaction initiation
[16] = 120 min after reaction initiation
[17] = 180 min after reaction initiation

## COc1cc(/C=C/C(=O)O)ccc1O [Ferulic acid, ferulic acid]
[1]; [8]
  turbidity (630 nm): 0.526
[1]; [9]
  turbidity (630 nm): 0.505
[1]; [10]
  turbidity (630 nm): 0.480
[1]; [11]
  turbidity (630 nm): 0.431
[1]; [12]
  turbidity (630 nm): 0.397
[1]; [13]
  turbidity (630 nm): 0.353
[1]; [14]
  turbidity (630 nm): 0.316
[1]; [15]
  turbidity (630 nm): 0.269
[1]; [16]
  turbidity (630 nm): 0.245
[1]; [17]
  turbidity (630 nm): 0.216
[1]
  germination confirmed by turbidity decrease: the turbidity decreased
[2]; [8]
  turbidity (630 nm): 0.560
[2]; [9]
  turbidity (630 nm): 0.551
[2]; [10]
  turbidity (630 nm): 0.537
[2]; [11]
  turbidity (630 nm): 0.541
[2]; [12]
  turbidity (630 nm): 0.489
[2]; [13]
  turbidity (630 nm): 0.473
[2]; [14]
  turbidity (630 nm): 0.459
[2]; [15]
  turbidity (630 nm): 0.397
[2]; [16]
  turbidity (630 nm): 0.326
[2]; [17]
  turbidity (630 nm): 0.202
[2]
  germination confirmed by turbidity decrease: the turbidity decreased
[3]; [8]
  turbidity (630 nm): 0.558
[3]; [9]
  turbidity (630 nm): 0.520
[3]; [10]
  turbidity (630 nm): 0.518
[3]; [11]
  turbidity (630 nm): 0.510
[3]; [12]
  turbidity (630 nm): 0.460
[3]; [13]
  turbidity (630 nm): 0.392
[3]; [14]
  turbidity (630 nm): 0.350
[3]; [15]
  turbidity (630 nm): 0.266
[3]; [16]
  turbidity (630 nm): 0.217
[3]; [17]
  turbidity (630 nm): 0.198
[3]
  germination confirmed by turbidity decrease: the turbidity decreased
[4]; [8]
  turbidity (630 nm): 0.484
[4]; [9]
  turbidity (630 nm): 0.450
[4]; [10]
  turbidity (630 nm): 0.393
[4]; [11]
  turbidity (630 nm): 0.276
[4]; [12]
  turbidity (630 nm): 0.193
[4]; [13]
  turbidity (630 nm): 0.124
[4]; [14]
  turbidity (630 nm): 0.080
[4]; [15]
  turbidity (630 nm): 0.040
[4]; [16]
  turbidity (630 nm): 0.016
[4]; [17]
  turbidity (630 nm): 0.016
[4]
  germination confirmed by turbidity decrease: the turbidity decreased
[5]; [8]
  turbidity (630 nm): 0.602
[5]; [9]
  turbidity (630 nm): 0.578
[5]; [10]
  turbidity (630 nm): 0.558
[5]; [11]
  turbidity (630 nm): 0.548
[5]; [12]
  turbidity (630 nm): 0.535
[5]; [13]
  turbidity (630 nm): 0.506
[5]; [14]
  turbidity (630 nm): 0.493
[5]; [15]
  turbidity (630 nm): 0.471
[5]; [16]
  turbidity (630 nm): 0.430
[5]; [17]
  turbidity (630 nm): 0.335
[5]
  germination confirmed by turbidity decrease: the turbidity decreased
[6]; [8]
  turbidity (630 nm): 0.566
[6]; [9]
  turbidity (630 nm): 0.531
[6]; [10]
  turbidity (630 nm): 0.500
[6]; [11]
  turbidity (630 nm): 0.454
[6]; [12]
  turbidity (630 nm): 0.423
[6]; [13]
  turbidity (630 nm): 0.372
[6]; [14]
  turbidity (630 nm): 0.340
[6]; [15]
  turbidity (630 nm): 0.300
[6]; [16]
  turbidity (630 nm): 0.247
[6]; [17]
  turbidity (630 nm): 0.209
[6]
  germination confirmed by turbidity decrease: the turbidity decreased
[7]; [8]
  turbidity (630 nm): 0.522
[7]; [9]
  turbidity (630 nm): 0.447
[7]; [10]
  turbidity (630 nm): 0.400
[7]; [11]
  turbidity (630 nm): 0.328
[7]; [12]
  turbidity (630 nm): 0.234
[7]; [13]
  turbidity (630 nm): 0.192
[7]; [14]
  turbidity (630 nm): 0.133
[7]; [15]
  turbidity (630 nm): 0.094
[7]; [16]
  turbidity (630 nm): 0.067
[7]; [17]
  turbidity (630 nm): 0.030
[7]
  germination confirmed by turbidity decrease: the turbidity decreased

## COc1cc(C(=O)O)ccc1O [Vanillic acid, vanillic acid]
[1]; [8]
  turbidity (630 nm): 0.519
[1]; [9]
  turbidity (630 nm): 0.496
[1]; [10]
  turbidity (630 nm): 0.485
[1]; [11]
  turbidity (630 nm): 0.435
[1]; [12]
  turbidity (630 nm): 0.385
[1]; [13]
  turbidity (630 nm): 0.359
[1]; [14]
  turbidity (630 nm): 0.316
[1]; [15]
  turbidity (630 nm): 0.278
[1]; [16]
  turbidity (630 nm): 0.237
[1]; [17]
  turbidity (630 nm): 0.210
[1]
  germination confirmed by turbidity decrease: the turbidity decreased
[2]; [8]
  turbidity (630 nm): 0.584
[2]; [9]
  turbidity (630 nm): 0.590
[2]; [10]
  turbidity (630 nm): 0.531
[2]; [11]
  turbidity (630 nm): 0.510
[2]; [12]
  turbidity (630 nm): 0.467
[2]; [13]
  turbidity (630 nm): 0.445
[2]; [14]
  turbidity (630 nm): 0.402
[2]; [15]
  turbidity (630 nm): 0.291
[2]; [16]
  turbidity (630 nm): 0.209
[2]; [17]
  turbidity (630 nm): 0.099
[2]
  germination confirmed by turbidity decrease: the turbidity decreased
[3]; [8]
  turbidity (630 nm): 0.590
[3]; [9]
  turbidity (630 nm): 0.528
[3]; [10]
  turbidity (630 nm): 0.490
[3]; [11]
  turbidity (630 nm): 0.430
[3]; [12]
  turbidity (630 nm): 0.390
[3]; [13]
  turbidity (630 nm): 0.335
[3]; [14]
  turbidity (630 nm): 0.290
[3]; [15]
  turbidity (630 nm): 0.225
[3]; [16]
  turbidity (630 nm): 0.180
[3]; [17]
  turbidity (630 nm): 0.137
[3]
  germination confirmed by turbidity decrease: the turbidity decreased
[4]; [8]
  turbidity (630 nm): 0.482
[4]; [9]
  turbidity (630 nm): 0.444
[4]; [10]
  turbidity (630 nm): 0.348
[4]; [11]
  turbidity (630 nm): 0.243
[4]; [12]
  turbidity (630 nm): 0.158
[4]; [13]
  turbidity (630 nm): 0.103
[4]; [14]
  turbidity (630 nm): 0.067
[4]; [15]
  turbidity (630 nm): 0.026
[4]; [16]
  turbidity (630 nm): 0.010
[4]; [17]
  turbidity (630 nm): 0.000
[4]
  germination confirmed by turbidity decrease: the turbidity decreased
[5]; [8]
  turbidity (630 nm): 0.604
[5]; [9]
  turbidity (630 nm): 0.575
[5]; [10]
  turbidity (630 nm): 0.551
[5]; [11]
  turbidity (630 nm): 0.543
[5]; [12]
  turbidity (630 nm): 0.505
[5]; [13]
  turbidity (630 nm): 0.483
[5]; [14]
  turbidity (630 nm): 0.461
[5]; [15]
  turbidity (630 nm): 0.432
[5]; [16]
  turbidity (630 nm): 0.390
[5]; [17]
  turbidity (630 nm): 0.266
[5]
  germination confirmed by turbidity decrease: the turbidity decreased
[6]; [8]
  turbidity (630 nm): 0.559
[6]; [9]
  turbidity (630 nm): 0.550
[6]; [10]
  turbidity (630 nm): 0.473
[6]; [11]
  turbidity (630 nm): 0.411
[6]; [12]
  turbidity (630 nm): 0.364
[6]; [13]
  turbidity (630 nm): 0.321
[6]; [14]
  turbidity (630 nm): 0.295
[6]; [15]
  turbidity (630 nm): 0.230
[6]; [16]
  turbidity (630 nm): 0.182
[6]; [17]
  turbidity (630 nm): 0.130
[6]
  germination confirmed by turbidity decrease: the turbidity decreased
[7]; [8]
  turbidity (630 nm): 0.548
[7]; [9]
  turbidity (630 nm): 0.402
[7]; [10]
  turbidity (630 nm): 0.295
[7]; [11]
  turbidity (630 nm): 0.221
[7]; [12]
  turbidity (630 nm): 0.150
[7]; [13]
  turbidity (630 nm): 0.100
[7]; [14]
  turbidity (630 nm): 0.076
[7]; [15]
  turbidity (630 nm): 0.047
[7]; [16]
  turbidity (630 nm): 0.021
[7]; [17]
  turbidity (630 nm): 0.018
[7]
  germination confirmed by turbidity decrease: the turbidity decreased
